Test [1] has as its target Carboxylic ester hydrolase (Equus caballus, UniProt Q9N1N9). Description: Acetylcholinesterase Inhibition Assay. Particulars: pH 8; 30 °C. The procedure: (§1) The assay was carried out according to the Ellman method [Ellman et al., Biochem. Pharmacol., 7:88-95], optimized for 96-well microplates using a Tecan Sunrise™ absorbance reader. […] For the blank, 50 μL of 0.26 U mL^−1 AChE was replaced by the same volume of 0.1 M phosphate buffer pH 8.0. In a typical assay, solutions of AChE, DTNB, and the compound to be tested, as well as the phosphate buffer, were mixed and incubated for 30 min at 30°C. Next, the reaction was started by the addition of ATCI solution. […] Reaction velocities were determined from the slopes of the linear portions of the graphs of time versus concentration of 5-thio-2-nitrobenzoate. All assays were done in triplicate.

Another test has as its target Acetylcholinesterase (Electrophorus electricus, UniProt O42275). Description: Acetylcholinesterase Inhibition Assay. To be noted: pH 8; 30 °C. The procedure:
as §1

Sequence of Carboxylic ester hydrolase (Q9N1N9 whole entry): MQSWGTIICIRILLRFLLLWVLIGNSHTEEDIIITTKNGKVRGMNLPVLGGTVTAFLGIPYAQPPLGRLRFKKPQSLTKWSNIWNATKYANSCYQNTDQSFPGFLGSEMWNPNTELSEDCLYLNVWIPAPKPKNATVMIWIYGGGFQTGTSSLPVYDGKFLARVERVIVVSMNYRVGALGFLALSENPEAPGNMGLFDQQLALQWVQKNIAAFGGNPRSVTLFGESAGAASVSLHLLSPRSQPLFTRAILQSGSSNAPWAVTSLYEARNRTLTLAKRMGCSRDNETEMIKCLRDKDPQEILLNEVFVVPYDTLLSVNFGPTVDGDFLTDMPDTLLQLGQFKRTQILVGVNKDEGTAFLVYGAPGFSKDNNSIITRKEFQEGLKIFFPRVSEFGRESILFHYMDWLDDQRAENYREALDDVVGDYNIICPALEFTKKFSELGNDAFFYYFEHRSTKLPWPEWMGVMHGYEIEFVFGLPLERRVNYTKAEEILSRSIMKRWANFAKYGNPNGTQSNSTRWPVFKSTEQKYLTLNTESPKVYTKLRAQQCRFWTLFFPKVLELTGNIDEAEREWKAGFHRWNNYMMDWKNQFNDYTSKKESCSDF
Sequence of Acetylcholinesterase (O42275 whole entry): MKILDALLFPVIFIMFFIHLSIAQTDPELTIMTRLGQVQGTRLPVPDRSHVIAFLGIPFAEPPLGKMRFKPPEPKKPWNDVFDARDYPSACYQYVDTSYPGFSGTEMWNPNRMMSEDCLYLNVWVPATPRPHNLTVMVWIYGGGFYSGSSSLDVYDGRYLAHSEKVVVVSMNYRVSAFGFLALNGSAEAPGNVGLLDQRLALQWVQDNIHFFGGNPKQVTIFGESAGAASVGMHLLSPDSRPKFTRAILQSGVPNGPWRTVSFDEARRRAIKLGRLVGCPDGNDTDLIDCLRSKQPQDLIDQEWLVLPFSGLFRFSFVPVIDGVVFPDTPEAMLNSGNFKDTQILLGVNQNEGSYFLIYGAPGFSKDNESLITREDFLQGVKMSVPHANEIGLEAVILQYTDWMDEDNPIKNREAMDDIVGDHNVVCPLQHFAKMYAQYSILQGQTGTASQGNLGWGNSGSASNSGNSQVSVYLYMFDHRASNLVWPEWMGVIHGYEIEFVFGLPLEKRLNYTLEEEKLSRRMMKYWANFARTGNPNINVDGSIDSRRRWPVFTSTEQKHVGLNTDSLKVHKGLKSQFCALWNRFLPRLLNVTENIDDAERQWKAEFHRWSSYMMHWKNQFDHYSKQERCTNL

For orientation: IC50 means the concentration that gives 50% inhibition. Lower therefore signals greater potency in that assay. Consider `COc1ccc2c3c1O[C@H]1C[C@@H](O)C=C[C@@]31CCN(C)C2` [galantamine], for which half-maximal inhibition in test [1] (IC50) was put at 23.3 µM. For the molecule `O=C1C(Cc2ccc(O)cc2)=C(Cc2ccc(O)cc2)C(=O)C1(c1ccc(O)cc1)C1(c2ccc(O)cc2)C(=O)C(Cc2ccc(O)cc2)=C(Cc2ccc(O)cc2)C1=O` [Nostotrebin 6], the values for the IC50 (at Acetylcholinesterase; in test [1]) were 5.5 µM and 6.8 µM, respectively.

(Values after BindingDB's records for doi:10.3109/14756360903213481 (Brno University of Technology, 2010).)
